The results in this text go back to PubChem BioAssay AID330 (DTP/NCI, 2004).

This experiment deals with P388 leukemia ip, CD2F1 mice, survival T/C. Description: NCI In Vivo Anticancer Drug Screen. Data for tumor model P388 Leukemia (intraperitoneal) in CD2F1 (CDF1) mice. Conditions: endpoint: median survival time, higher = longer survival. The method, boiled down:
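Mice carrying the transplanted tumor received test compound or vehicle. Survival was recorded in each group, and the value is the treated-group measurement divided by that of the vehicle-treated control group.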

The mark [1] stands for this setting: dose: 12.5 mg/kg/injection, schedule: Q01DX009 (ip), vehicle: saline with Tween-80.
The mark [2] stands for this setting: dose: 12.5 mg/kg/injection, schedule: Q01DX009 (ip), vehicle: saline.
The mark [3] stands for this setting: dose: 25.0 mg/kg/injection, schedule: Q01DX009 (ip), vehicle: saline.
The mark [4] stands for this setting: dose: 50.0 mg/kg/injection, schedule: Q01DX009 (ip), vehicle: saline.
Where [5] appears, read: dose: 100.0 mg/kg/injection, schedule: Q01DX009 (ip), vehicle: saline.

Molecules are shown by their SMILES. Values joined by “and” are separate entries in the source; they are usually repeats but may differ in a detail not shown here. Equal entries are not always repeated. Inconclusive results and toxic doses are left out.

As to `Cc1cccc2c1/C(=C1/c3ccccc3C(=O)c3cccc(C)c31)c1ccccc1C2=O`, the T/C is, setting by setting: (dose: 50.0 mg/kg/injection, schedule: Q01DX005 (ip), vehicle: Klucel + Tween-80) 87 % of control; (dose: 100.0 mg/kg/injection, schedule: Q01DX005 (ip), vehicle: Klucel + Tween-80) 90 % of control.

On to `CC(=O)NC(=O)Cc1ccccc1`, for which the T/C runs as follows: (dose: 100.0 mg/kg/injection, schedule: Q04DX002 (ip), vehicle: Klucel (hydroxypropylcellulose) (HPC)) 94 % of control; (dose: 200.0 mg/kg/injection, schedule: Q04DX002 (ip), vehicle: Klucel (hydroxypropylcellulose) (HPC)) 95 % of control; (dose: 400.0 mg/kg/injection, schedule: Q04DX002 (ip), vehicle: Klucel (hydroxypropylcellulose) (HPC)) 97 % of control.

In the case of `CSC(=S)n1nc(C)c(N=Nc2ccccc2[N+](=O)[O-])c1C`, the T/C runs as follows: (dose: 100.0 mg/kg/injection, schedule: Q01DX001 (ip), vehicle: Klucel (hydroxypropylcellulose) (HPC)) 111 % of control; (dose: 200.0 mg/kg/injection, schedule: Q01DX001 (ip), vehicle: Klucel (hydroxypropylcellulose) (HPC)) 96 % of control; (dose: 400.0 mg/kg/injection, schedule: Q01DX001 (ip), vehicle: Klucel (hydroxypropylcellulose) (HPC)) 106 % of control.

In the case of `C=C1C(=O)C23C(OC(=O)c4ccc(Br)cc4)C1CCC2C12COC3(O)C(O)C1C(C)(C)CCC2O` (stereo not drawn), the T/C reads like this: (dose: 3.75 mg/kg/injection, schedule: Q01DX009 (ip), vehicle: saline with Tween-80) 105 % of control and 106 % of control; (dose: 7.5 mg/kg/injection, schedule: Q01DX009 (ip), vehicle: saline with Tween-80) 105 % of control and 111 % of control; (dose: 15.0 mg/kg/injection, schedule: Q01DX009 (ip), vehicle: saline with Tween-80) 111 % of control and 120 % of control; (dose: 30.0 mg/kg/injection, schedule: Q01DX009 (ip), vehicle: saline with Tween-80) 119 % of control.

For the compound `COc1ccc2c(c1OC(C)=O)-c1cc(O)cc3c1C(C2)N(C(=O)CN(CCCl)CCCl)CC3` (stereo not drawn), the T/C is, setting by setting: (dose: 3.13 mg/kg/injection, schedule: Q04DX003 (ip), vehicle: DMSO) 116 % of control; (dose: 6.25 mg/kg/injection, schedule: Q04DX003 (ip), vehicle: DMSO) 123 % of control; (dose: 12.5 mg/kg/injection, schedule: Q04DX003 (ip), vehicle: DMSO) 174 % of control; (dose: 25.0 mg/kg/injection, schedule: Q04DX003 (ip), vehicle: DMSO) 168 % of control; (dose: 25.0 mg/kg/injection, schedule: Q04DX003 (ip), vehicle: distilled water + Tween-80) 154 % of control; (dose: 50.0 mg/kg/injection, schedule: Q04DX003 (ip), vehicle: DMSO) 169 % of control. Also, the T/C (dose: 50.0 mg/kg/injection, schedule: Q04DX003 (ip), vehicle: saline) is 87 % of control.

In the case of `C=C1CC2C(C1=O)C(c1ccc(OC)cc1)C13OC1CCC23` (stereo not drawn), the T/C was 105 % of control (dose: 100.0 mg/kg/injection, schedule: Q04DX003 (ip), vehicle: Klucel (hydroxypropylcellulose) (HPC)); 96 % of control (dose: 200.0 mg/kg/injection, schedule: Q04DX003 (ip), vehicle: Klucel (hydroxypropylcellulose) (HPC)); 86 % of control (dose: 400.0 mg/kg/injection, schedule: Q04DX003 (ip), vehicle: Klucel (hydroxypropylcellulose) (HPC)).

Take `CCCCNC1(N(C)C)N=C(N(C)C)N=C(N(C)C)O1` (stereo not drawn): the T/C reads like this: (dose: 50.0 mg/kg/injection, schedule: Q01DX005 (ip), vehicle: saline) 88 % of control; (dose: 100.0 mg/kg/injection, schedule: Q01DX005 (ip), vehicle: saline) 89 % of control; (dose: 200.0 mg/kg/injection, schedule: Q01DX005 (ip), vehicle: saline) 95 % of control.

Consider `O=C(O)/C=C/C(=O)N1Cc2cc3ccccc3nc2C1`, for which the T/C runs as follows: (dose: 1.56 mg/kg/injection, schedule: Q01DX009 (ip), vehicle: saline with Tween-80) 100 % of control and 101 % of control and 104 % of control; (dose: 3.13 mg/kg/injection, schedule: Q01DX009 (ip), vehicle: saline with Tween-80) 99 % of control and 103 % of control and 117 % of control; (dose: 6.25 mg/kg/injection, schedule: Q01DX009 (ip), vehicle: saline with Tween-80) 101 % of control and 94 % of control; (dose: 8.0 mg/kg/injection, schedule: Q01DX009 (ip), vehicle: saline with Tween-80) 91 % of control; under setting [1], 98 % of control and 99 % of control and 107 % of control; (dose: 16.0 mg/kg/injection, schedule: Q01DX009 (ip), vehicle: saline with Tween-80) 94 % of control. Also, the T/C reads like this: (dose: 32.0 mg/kg/injection, schedule: Q01DX009 (ip), vehicle: saline with Tween-80) 99 % of control; (dose: 64.0 mg/kg/injection, schedule: Q01DX009 (ip), vehicle: saline with Tween-80) 94 % of control.

For the compound `CN=C(C)Nc1ccccc1OC`, the T/C runs as follows: under setting [2], 111 % of control; under setting [3], 114 % of control; under setting [4], 113 % of control and 97 % of control.

Take `CC(C)(C)CC(C)(C)c1ccc(OCCOc2ccc(C(=O)NCCNC(=O)c3ccc4ccccc4c3O)cc2N)cc1`: the T/C by setting is: (dose: 6.25 mg/kg/injection, schedule: Q01DX009 (ip), vehicle: Klucel (hydroxypropylcellulose) (HPC)) 102 % of control; (dose: 12.5 mg/kg/injection, schedule: Q01DX009 (ip), vehicle: Klucel (hydroxypropylcellulose) (HPC)) 114 % of control; (dose: 25.0 mg/kg/injection, schedule: Q01DX009 (ip), vehicle: Klucel (hydroxypropylcellulose) (HPC)) 102 % of control; (dose: 50.0 mg/kg/injection, schedule: Q01DX009 (ip), vehicle: Klucel (hydroxypropylcellulose) (HPC)) 98 % of control; (dose: 100.0 mg/kg/injection, schedule: Q01DX009 (ip), vehicle: Klucel (hydroxypropylcellulose) (HPC)) 102 % of control.

Take `O=c1ccnc2ccccn12`: the T/C runs as follows: (dose: 60.0 mg/kg/injection, schedule: Q01DX005 (ip), vehicle: saline with Tween-80) 94 % of control; (dose: 120.0 mg/kg/injection, schedule: Q01DX005 (ip), vehicle: saline with Tween-80) 107 % of control; (dose: 240.0 mg/kg/injection, schedule: Q01DX005 (ip), vehicle: saline with Tween-80) 100 % of control.

As to `C1CN2CCN1CC2.[Cl][Pt]([Cl])[Cl]`, the T/C by setting is: (dose: 100.0 mg/kg/injection, schedule: Q04DX002 (ip), vehicle: saline with Tween-80) 117 % of control; (dose: 200.0 mg/kg/injection, schedule: Q04DX002 (ip), vehicle: saline with Tween-80) 117 % of control.

Take `C=C1C(=O)OC2/C=C(/CO)CC/C=C(/C=O)CC(O)C12` (stereo not drawn): the T/C by setting is: (dose: 1.89 mg/kg/injection, schedule: Q01DX005 (ip), vehicle: saline + Tween-80 + alcohol) 101 % of control; (dose: 3.75 mg/kg/injection, schedule: Q01DX005 (ip), vehicle: saline + Tween-80 + alcohol) 100 % of control; (dose: 7.5 mg/kg/injection, schedule: Q01DX005 (ip), vehicle: saline + Tween-80 + alcohol) 101 % of control; (dose: 15.0 mg/kg/injection, schedule: Q01DX005 (ip), vehicle: saline + Tween-80 + alcohol) 99 % of control.

Regarding `CN(C)CCC(OC(=O)c1ccccc1Cl)c1ccccc1` (stereo not drawn), the T/C runs as follows: under setting [3], 99 % of control and 100 % of control and 101 % of control; under setting [4], 101 % of control and 107 % of control and 117 % of control; under setting [5], 108 % of control and 116 % of control.

For `CNC(=O)OCCN(CCOC(=O)NC)C(=O)N1c2ccccc2Sc2ccccc21`, the T/C under setting [1] was 94 % of control; the T/C (dose: 25.0 mg/kg/injection, schedule: Q01DX009 (ip), vehicle: saline with Tween-80) was 98 % of control; the T/C (dose: 50.0 mg/kg/injection, schedule: Q01DX009 (ip), vehicle: saline with Tween-80) was 91 % of control; the T/C (dose: 100.0 mg/kg/injection, schedule: Q01DX009 (ip), vehicle: saline with Tween-80) was 100 % of control; the T/C (dose: 200.0 mg/kg/injection, schedule: Q01DX009 (ip), vehicle: saline with Tween-80) was 100 % of control.

As to `CN(C)[C@@H]1C(=O)C(C(=O)NCNC2CC(C)(C)N(O)C(C)(C)C2)=C(O)C2(O)C(=O)C3=C(O)c4c(O)cccc4[C@@](C)(O)C3CC12` (stereo partly drawn), the T/C is, setting by setting: (dose: 100.0 mg/kg/injection, schedule: Q01DX001 (ip), vehicle: saline) 105 % of control; (dose: 200.0 mg/kg/injection, schedule: Q01DX001 (ip), vehicle: saline) 89 % of control; (dose: 400.0 mg/kg/injection, schedule: Q01DX001 (ip), vehicle: saline) 91 % of control.

For the compound `Cc1ccc(C(C)C)c(OCCN)c1`, the T/C reads like this: (dose: 6.25 mg/kg/injection, schedule: Q01DX009 (ip), vehicle: saline) 112 % of control; under setting [2], 110 % of control; under setting [3], 107 % of control; under setting [4], 94 % of control.

With `Cc1ccc(O)c(C2CC(=O)NC(N)=N2)c1` (stereo not drawn), the T/C was 110 % of control under setting [4]; 101 % of control under setting [5]; 104 % of control (dose: 200.0 mg/kg/injection, schedule: Q01DX009 (ip), vehicle: saline).
